Measurements from EP4782445A1, “CDK KINASE INHIBITOR AND USE THEREOF” (Abbisko Therapeutics Co., Ltd., priority 2023, dated 2025).

How the values were obtained:
CDK4/cyclin D3 = biological target: T1, CDK4/cyclin D3 (Homo sapiens, UniProt P11802); test: In vitro biochemical kinase activity assay for CDK4/cyclin D3 (HTRF); conditions: data marked with *: 1 mM ATP in Step 1
T1 construct: purchased Carna
Method: II. In Vitro Biochemical Kinase Activity Assay for CDK4/Cyclin D3
The inhibitory effects of the compounds of the present invention on CDK4/cyclin D3 kinase activity were determined using an HTRF assay. The experimental process was as follows: • 1. The kinase reaction was carried out in a 384-well plate. 4.9 nM CDK4/cyclin D3 (Carna), 1 mM (or 80 µM) ATP, and 0.3 µM biotin-labeled substrate protein Rb-biotin (Cisbio) were incubated at 30°C for 90 min in a buffer system composed of 50 mM MgCl2, 1 mM DTT, and basal kinase buffer (Cisbio). • 2. The detection solution (Cisbio, containing reagents that specifically recognize phosphorylated Rb and Rb-biotin proteins, respectively) was added. The plate was then sealed with a film (to protect from light and volatilization) and incubated at 25°C for 60 min. • 3. The plate was transferred to an Envision plate reader to detect FRET signals. (The 665/615 ratio was calculated by reading the emission at 665 nm and 615 nM, respectively.) • 4. The IC50 values were determined by analyzing the inhibition at varying compound concentrations using Model 205 in the XLfit software.

CDK6/cyclin D3 = biological target: T2, CDK6/cyclin D3 (Homo sapiens, UniProt Q00534); test: In vitro biochemical kinase activity assay for CDK6/cyclin D3 (HTRF); conditions: data marked with *: 1 mM ATP in Step 1
T2 construct: purchased Carna
Method: III. In Vitro Biochemical Kinase Activity Assay for CDK6/Cyclin D3
The inhibitory effects of the compounds of the present invention on CDK6/cyclin D3 kinase activity were determined using an HTRF assay. The experimental process was as follows: 1. The kinase reaction was carried out in a 384-well plate. 0.02 nM CDK6/cyclin D3 (Carna), 1 mM (or 100 µM) ATP, and 0.3 µM biotin-labeled substrate protein Rb-biotin (Cisbio) were incubated at 30°C for 60 min in a buffer system composed of 5 mM MgCl2, 1 mM DTT, and basal kinase buffer (Cisbio). 2. The detection solution (Cisbio, containing reagents that specifically recognize phosphorylated Rb and Rb-biotin proteins, respectively) was added. The plate was then sealed with a film (to protect from light and volatilization) and incubated at 25°C for 60 min. 3. The plate was transferred to an Envision plate reader to detect FRET signals. (The 665/615 ratio was calculated by reading the emission at 665 nm and 615 nM, respectively.) 4. The IC50 values were determined by analyzing the inhibition at varying compound concentrations using Model 205 in the XLfit software.

T1 sequence (P11802 whole entry): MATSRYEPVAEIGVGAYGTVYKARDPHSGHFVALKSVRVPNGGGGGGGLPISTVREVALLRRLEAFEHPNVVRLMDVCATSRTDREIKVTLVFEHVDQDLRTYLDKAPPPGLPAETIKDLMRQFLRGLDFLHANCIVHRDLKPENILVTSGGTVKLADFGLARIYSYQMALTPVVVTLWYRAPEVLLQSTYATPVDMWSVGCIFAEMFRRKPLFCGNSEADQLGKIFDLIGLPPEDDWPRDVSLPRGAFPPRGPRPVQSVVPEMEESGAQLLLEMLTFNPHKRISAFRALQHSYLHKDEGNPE
T1 sequence (P30281 whole entry partner): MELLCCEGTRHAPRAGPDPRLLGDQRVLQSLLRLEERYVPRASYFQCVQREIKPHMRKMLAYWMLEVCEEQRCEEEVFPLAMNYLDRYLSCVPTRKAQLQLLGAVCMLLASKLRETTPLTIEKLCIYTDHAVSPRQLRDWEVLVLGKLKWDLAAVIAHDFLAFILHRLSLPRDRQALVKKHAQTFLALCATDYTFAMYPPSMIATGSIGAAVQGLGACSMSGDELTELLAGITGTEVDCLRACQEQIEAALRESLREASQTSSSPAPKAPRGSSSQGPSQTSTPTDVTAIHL
T2 sequence (Q00534 whole entry): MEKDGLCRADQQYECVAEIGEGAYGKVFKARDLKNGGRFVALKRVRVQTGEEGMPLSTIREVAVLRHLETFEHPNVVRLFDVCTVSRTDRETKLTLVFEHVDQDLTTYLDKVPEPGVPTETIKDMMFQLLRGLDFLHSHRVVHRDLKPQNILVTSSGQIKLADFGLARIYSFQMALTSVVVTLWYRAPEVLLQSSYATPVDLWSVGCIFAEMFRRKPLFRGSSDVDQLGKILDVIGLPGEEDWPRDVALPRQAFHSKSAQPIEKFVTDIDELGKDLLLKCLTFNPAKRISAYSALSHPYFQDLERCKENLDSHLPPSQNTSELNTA
T2 sequence (P30281 whole entry partner): as the sequence (P30281 whole entry partner) above

| IC50 (CDK4/cyclin D3) [nM] | IC50 (CDK6/cyclin D3) [nM] | Structure (SMILES) |
| --- | --- | --- |
| 5.57 | 45.2 | CCN1CC2(C1)CN(c1ccc(Nc3ncc(Cl)c(C#Cc4cnc(CN5[C@@H](C)COC[C@@H]5C)n4C(C)C)n3)nc1)C2 [Example 104, 5-chloro-4-((2-(((3 S,5 S)-3,5-dimethylmorpholino)methyl)-1-isopropyl-1H-imidazol-5-yl)ethynyl)-N-(5-(6-ethyl-2,6-diazaspiro[3.3]heptan-2-yl)pyridin-2-yl)pyrimidin-2-amine] |
| 26.4 | 413 | CC(C)n1c(C#Cc2nc(N[C@@H]3CCOC[C@H]3O)ncc2Cl)cnc1CN1CCC[C@H](F)C1 [Example 105, (3S,4R)-4-((5-chloro-4-((2-(((S)-3-fluoropiperidin-1-yl)methyl)-1-isopropyl-1H-imidazol-5-yl)ethynyl)pyrimidin-2-yl)amino)tetrahydro-2H-pyran-3-ol] |
| 33.3 | 280 | CC(=O)N1CCN(Cc2ccc(Nc3ncc(Cl)c(C#Cc4cnc(CN5CCC[C@H](O)C5)n4C(C)C)n3)nc2)CC1 [Example 106, (S)-1-(4-((6-((5-chloro-4-((2-((3-hydroxypiperidin-1-yl)methyl)-1-isopropyl-1H-imidazol-5-yl)ethynyl)pyrimidin-2-yl)amino)pyridin-3-yl)methyl)piperazin-1-yl)ethan-1-one] |
| 8.86 | 116 | CCN1CCN(Cc2ccc(Nc3ncc(Cl)c(C#Cc4cnc(CN5CCC[C@H](O)C5)n4C(C)C)n3)nc2)CC1 [Example 107, (S)-1-((5-((5-chloro-2-((5-((4-ethylpiperazin-1-yl)methyl)pyridin-2-yl)amino)pyrimidin-4-yl)ethynyl)-1-isopropyl-1H-imidazol-2-yl)methyl)piperidin-3-ol] |
| 5.25 | 51.9 | CCN1CC2(C1)CN(c1ccc(Nc3ncc(Cl)c(C#Cc4cnc(CN5CCC[C@H](O)C5)n4C(C)C)n3)nc1)C2 [Example 108, (S)-1-((5-((5-chloro-2-((5-(6-ethyl-2,6-diazaspiro[3.3]heptan-2-yl)pyridin-2-yl)amino)pyrimidin-4-yl)ethynyl)-1-isopropyl-1H-imidazol-2-yl)methyl)piperidin-3-ol] |
| 36.1 | 451 | CC(C)n1c(C#Cc2nc(N[C@@H]3CCOC[C@H]3O)ncc2Cl)cnc1CN1CCCC(C)(O)C1 (stereo partly drawn) [Example 110, 1-((5-((5-chloro-2-(((3 S,4R)-3-hydroxytetrahydro-2H-pyran-4-yl)amino)pyrimidin-4-yl)ethynyl)-1-isopropyl-1H-imidazol-2-yl)methyl)-3-methylpiperidin-3-ol] |
| 47.1 | 335 | CC1(C)OCCn2ncc(C#Cc3nc(N[C@@H]4CCOC[C@H]4O)ncc3Cl)c21 [Example 111, (3 S,4R)-4-((5-chloro-4-((4,4-dimethyl-6,7-dihydro-4H-pyrazolo[5,1-c][1,4]oxazin-3-yl)ethynyl)pyrimidin-2-yl)amino)tetrahydro-2H-pyran-3-ol] |
| 179 | 1240 | CC(C)n1c(C#Cc2nc(N[C@@H]3CCOC[C@H]3O)ncc2Cl)cnc1C1CCO1 (stereo partly drawn) [Example 112, (3S,4R)-4-((5-chloro-4-((1-isopropyl-2-(oxetan-2-yl)-1H-imidazol-5-yl)ethynyl)pyrimidin-2-yl)amino)tetrahydro-2H-pyran-3-ol] |
| 5.95 | 45.6 | CC(C)n1c(C#Cc2nc(Nc3ccc(N4CC5(CN(CC(F)(F)F)C5)C4)cn3)ncc2Cl)cnc1CN1CCC[C@H](O)C1 [Example 113, (S)-1-((5-((5-chloro-2-((5-(6-(2,2,2-trifluoroethyl)-2,6-diazaspiro[3.3]heptan-2-yl)pyridin-2-yl)amino)pyrimidin-4-yl)ethynyl)-1-isopropyl-1H-imidazol-2-yl)methyl)piperidin-3-ol] |
| 7.99 | 28.4 | CC(C)n1c(C#Cc2nc(Nc3ccc(C(=O)N4CCCC4)cn3)ncc2Cl)cnc1C(C)(C)O [Example 114, (6-((5-chloro-4-((2-(2-hydroxypropan-2-yl)-1-isopropyl-1H-imidazol-5-yl)ethynyl)pyrimidin-2-yl)amino)pyridin-3-yl)(pyrrolidin-1-yl)methanone] |
| 2.28 | 17.9 | CC(C)n1c(C#Cc2nc(Nc3ccc(N4CC5(CN(C)C5)C4)cn3)ncc2Cl)cnc1CN1CCC[C@H](O)C1 [Example 115, (S)-1-((5-((5-chloro-2-((5-(6-methyl-2,6-diazaspiro[3.3]heptan-2-yl)pyridin-2-yl)amino)pyrimidin-4-yl)ethynyl)-1-isopropyl-1H-imidazol-2-yl)methyl)piperidin-3-ol] |
| 5.7 | 87.8 | CC(C)n1c(C#Cc2nc(Nc3ccc(N4CC5(CN(CC(F)F)C5)C4)cn3)ncc2Cl)cnc1CN1CCC[C@H](O)C1 [Example 116, (S)-1-((5-((5-chloro-2-((5-(6-(2,2-difluoroethyl)-2,6-diazaspiro[3.3]heptan-2-yl)pyridin-2-yl)amino)pyrimidin-4-yl)ethynyl)-1-isopropyl-1H-imidazol-2-yl)methyl)piperidin-3-ol] |
| 615 | 5550 | CC(C)n1c(C#Cc2nc(N[C@@H]3CCOC[C@H]3O)ncc2Cl)cnc1C(=O)N1CCC[C@H](O)C1 [Example 117, (5-((5-chloro-2-(((3 S,4R)-3-hydroxytetrahydro-2H-pyran-4-yl)amino)pyrimidin-4-yl)ethynyl)-1-isopropyl-1H-imidazol-2-yl)((S)-3-hydroxypiperidin-1-yl)methanone] |
| 21.7 | 135 | CC(C)n1c(C#Cc2cc(N[C@@H]3CCOC[C@H]3O)ncc2Cl)cnc1C(C)(C)O [Example 118, (3 S,4R)-4-((5-chloro-4-((2-(2-hydroxypropan-2-yl)-1-isopropyl-1H-imidazol-5-yl)ethynyl)pyridin-2-yl)amino)tetrahydro-2H-pyran-3-ol] |
| 5.37 | 15.4 | CC(C)n1c(C#Cc2nc(Nc3ccc(C4C5CN(C)CC54)cn3)ncc2Cl)cnc1C(C)(C)O (stereo not drawn) [Example 119, 2-(5-((5-chloro-2-((5-(3-methyl-3-azabicyclo[3.1.0]hexan-6-yl)pyridin-2-yl)amino)pyrimidin-4-yl)ethynyl)-1-isopropyl-1H-imidazol-2-yl)propan-2-ol] |
| 26.1 | 130 | CC(C)n1c(C#Cc2nc(N[C@@H]3CCOC[C@H]3O)ncc2Cl)cnc1C1CC1 [Example 120, (3 S,4R)-4-((5-chloro-4-((2-cyclopropyl-1-isopropyl-1H-imidazol-5-yl)ethynyl)pyrimidin-2-yl)amino)tetrahydro-2H-pyran-3-ol] |
| 9.24 | 75.9 | CC(C)n1c(C#Cc2nc(N[C@@H]3CCOC[C@H]3O)ncc2Cl)cnc1C1(O)CC1 [Example 121, (3 S,4R)-4-((5-chloro-4-((2-(1-hydroxycyclopropyl)-1-isopropyl-1H-imidazol-5-yl)ethynyl)pyrimidin-2-yl)amino)tetrahydro-2H-pyran-3-ol] |
| 2.07 | 7.84 | CCN1CCN(Cc2ccc(Nc3ncc(Cl)c(C#Cc4cnc(C(C)O)n4C(C)C)n3)nc2)CC1 (stereo not drawn) [Example 122, 1-(5-((5-chloro-2-((5-((4-ethylpiperazin-1-yl)methyl)pyridin-2-yl)amino)pyrimidin-4-yl)ethynyl)-1-isopropyl-1H-imidazol-2-yl)ethan-1-ol] |
| 36.9 | 545 | CC(C)n1c(C#Cc2nc(N[C@@H]3CCOC[C@H]3O)ncc2Cl)cnc1[C@@H](C)N1CCC[C@H](O)C1 [Example 123, (S)-1-((R)-1-(5-((5-chloro-2-(((3 S,4R)-3-hydroxytetrahydro-2H-pyran-4-yl)amino)pyrimidin-4-yl)ethynyl)-1-isopropyl-1H-imidazol-2-yl)ethyl)piperidin-3-ol] |
| 182 | 1160 | CC(C)n1c(C#Cc2nc(N[C@@H]3CCOC[C@H]3O)ncc2Cl)cnc1[C@H](C)N1CCC[C@H](O)C1 [Example 124, (S)-1-((S)-1-(5-((5-chloro-2-(((3 S,4R)-3-hydroxytetrahydro-2H-pyran-4-yl)amino)pyrimidin-4-yl)ethynyl)-1-isopropyl-1H-imidazol-2-yl)ethyl)piperidin-3-ol] |
| 11.6 | 65.4 | CC(C)n1c(C#Cc2nc(N[C@@H]3CCOC[C@H]3O)ncc2Cl)cnc1C(C)(O)C1CC1 (stereo partly drawn) [Example 125, (3 S,4R)-4-((5-chloro-4-((2-(1-cyclopropyl-1-hydroxyethyl)-1-isopropyl-1H-imidazol-5-yl)ethynyl)pyrimidin-2-yl)amino)tetrahydro-2H-pyran-3-ol] |
